The record followed here is patent US11596150B2, “Long chain glycolipids useful to avoid perishing or microbial contamination of materials” (IMD NATURAL SOLUTIONS GMBH, priority 2011, dated 2023).

The subject of test [1] is Bacillus subtilis (ATCC6633). Kind of test: MIC determination in microtiter plates (non-pathogenic microorganisms). Particulars: 48 h, read-out: MIC values after 48 h. Type of test: cell-based.
Test [2] relates to Corynebacterium variabile (DSM20132). The test is described as above. Type of test: cell-based. The note with it: 48 h, read-out: MIC values after 48 h.
In test [3] the test system is Lactobacillus plantarum (DSM 12028). The test is described as above. Type of test: cell-based. Particulars: Lactiplantibacillus plantarum; Lactobacillus plantarum (DSM12028); 48 h; read-out: MIC values after 48 h.
The test system of test [4] is Aspergillus niger (ATCC 16404). Described as above. Type of test: cell-based. Particulars: Aspergillus niger (ATCC16404); 48 h; read-out: MIC values after 48 h.
Test [5] relates to Byssochlamys fulva (DSM62097). Described as above. Type of test: cell-based. Particulars: Paecilomyces fulvus, 48 h, read-out: MIC values after 48 h.
The subject of test [6] is Mucor plumbeus (MUCL49355). Described as above. Type of test: cell-based.
In test [7] the test system is Dekkera bruxellensis (DSM70726). The test is described as above. The note with it: Brettanomyces bruxellensis, 48 h, read-out: MIC values after 48 h. The format is cell-based.
In test [8] the test system is Dekkera naardenensis (DSM70743). The test is described as above. The format is cell-based. Particulars: Brettanomyces naardenensis, 48 h, read-out: MIC values after 48 h.
Test [9] concerns Saccharomyces cerevisiae (HT10). The test is described as above. The format is cell-based. The note with it: 48 h, read-out: MIC values after 48 h.
For test [10], the system named is Zygosaccharomyces bailii (DSM70492). The test is described as above. The format is cell-based. Particulars: 48 h, read-out: MIC values after 48 h.
Test [11] has as its system Zygosaccharomyces bisporus (DSM70415). The description is as above. The note with it: 48 h, read-out: MIC values after 48 h. The format is cell-based.
The test system of test [12] is Zygosaccharomyces florentinus (DSM70506). Described as above. The format is cell-based. The note with it: Zygotorulaspora florentina, 48 h, read-out: MIC values after 48 h.
The subject of test [13] is Zygosaccharomyces rouxii (NCYC381). The description is as above. The format is cell-based. Particulars: 48 h, read-out: MIC values after 48 h.
Test [14] relates to Staphylococcus aureus (ATCC 6538P). Kind of test: microbe, parasite or virus in culture. The format is cell-based. The note with it: ATCC6538P, Mueller-Hinton Broth, 1% DMSO, 20 hours at 36° C., read-out: MIC S. aureus.
Test [15] has as its system Clostridium perfringens (ATCC 13124). Kind of test: microbe, parasite or virus in culture. The note with it: ATCC13124, 48 h. Type of test: cell-based.
Test [16] deals with Aspergillus fumigatus (ATCC 1028). In words: microbe, parasite or virus in culture. Type of test: cell-based.
For test [17], the system named is Propionibacterium acnes (ATCC6919). Kind of test: MIC after 48 h (Example 9). The format is cell-based. Particulars: Cutibacterium acnes.
For test [18], the system named is Talaromyces luteus (CBS348.51). In words: MIC after 48 h (Example 9). The format is cell-based. The note with it: Ascospirella lutea.
Test [19] has as its system Pyricularia oryzae (DSM62938). In words: microbe, parasite or virus in culture. The format is cell-based. Particulars: DSM62938, 48 h, read-out: MIC values after 48 h.
Test [20] has as its system Candida albicans. Kind of test: MIC / growth inhibition after 48 h (Example 9). Particulars: ATCC10231, 48 h, read-out: MIC values after 48 h.
Where [21] appears, read: M. plumbeus (MUCL49355), SDB medium, day not given (Table 19).
Where [22] appears, read: M. plumbeus (MUCL49355), SDB medium, day not printed (first line of Table 19).
Setting [23] is: Mucor plumbeus (MUCL49355), 48 h, read-out: MIC values after 48 h.
Where [24] appears, read: M. plumbeus (MUCL49355), SDB medium, day 2.
Where [25] appears, read: M. plumbeus (MUCL49355), SDB medium, day 7.
Setting [26] is: M. plumbeus (MUCL49355), SDB medium, day 16.
[27] abbreviates: M. plumbeus (MUCL49355), SDB medium, day 28.

≈ marks a conversion by molar mass, not a printed value. Like-named read-outs stand apart in the source and are kept apart here. Some results are limits rather than exact numbers.

For the compound `CCCCC(CCCC(O)C(O)CCCCCCCCCCCCCCC(O)C(=O)O)OC1OCC(O)C(O)C1OC1OCC(OC(C)=O)C(O)C1OC1OC(COC(=O)CC(C)C)C(O)C(O)C1O` (stereo not shown) [[1], 2,17,18-trihydroxy-hexacosanoic acid 22-O-[6-isovaleroyl-hexapyranosyl-(1→2)-5-acetyl-pentapyranosyl-(1→2)-penta-pyranosid]-], the MIC in [1] was 3.1 µg/mL (≈ 3.06 µM); in [2] it was 1.6 µg/mL (≈ 1.58 µM); in test [3], 25 µg/mL (≈ 24.7 µM); in test [4], 3.1 µg/mL (≈ 3.06 µM); in [5], 3.1 µg/mL (≈ 3.06 µM); in test [6] (setting [21]), 50. Further, the MIC worked out at 25 in test [6] (setting [22]); 6.3 µg/mL (≈ 6.22 µM) in [6] (setting [23]); 6.3 µg/mL (≈ 6.22 µM) in test [7]; 6.3 µg/mL (≈ 6.22 µM) in test [8]; 6.3 µg/mL (≈ 6.22 µM) in [9]; 6.3 µg/mL (≈ 6.22 µM) in test [10]. For the same compound, the MIC is 12.5 µg/mL (≈ 12.3 µM) in test [11]; 6.3 µg/mL (≈ 6.22 µM) in test [12]; 6.3 µg/mL (≈ 6.22 µM) in test [13]; 200 µg/mL (≈ 197 µM) in [14]; 60 µg/mL (≈ 59.2 µM) in test [15] (read-out: MIC C. perfringens); 60 µg/mL (≈ 59.2 µM) in test [15] (read-out: MIC values after 48 h). The MIC in [16] (Aspergillus fumigatus (ATCC1028), 48 h, read-out: MIC values after 48 h) is 20 µg/mL (≈ 19.7 µM); in [16] (Aspergillus fumigatus, ATCC1028, 72 h, Potato Dextrose Broth, 1% DMSO, 3 days at 28° C., read-out: MIC A. fumigatus) it was 20 µg/mL (≈ 19.7 µM); in [17], 100 µg/mL (≈ 98.7 µM); in [18], 12.5 µg/mL (≈ 12.3 µM); in test [19], 6 µg/mL (≈ 5.92 µM); in test [20], 30 µg/mL (≈ 29.6 µM).

For `CCCCC(CCCC(O)C(O)CCCCCCCCCCCCCCC(O)C(=O)O)OC1OCC(O)C(O)C1OC1OCC(O)C(O)C1OC1OC(COC(C)=O)C(OC(C)=O)C(O)C1O` (stereo not shown) [[6], Glykenin IIIB or Glykenin IIIC], the MIC in [6] (setting [21]) and in [6] (setting [22]) was 25 each time.

For the compound `CCCCCCC(CCCC(O)CCCCCCCCCCCCCC(O)C(=O)O)OC1OCC(O)C(O)C1OC1OCC(OC(C)=O)C(O)C1OC1OC(COC(C)=O)C(O)C(O)C1O` (stereo not shown) [[10], Antibiotic F 19848A], the MIC was 50 in test [6] (setting [21]) and 12.5 in test [6] (setting [22]).

In the case of `CCCCC(CCCC(O)C(O)CCCCCCCCCCCCCCC(O)C(=O)O)OC1OCC(O)C(O)C1OC1OCC(O)C(O)C1OC1OC(COC(=O)CC(C)C)C(OC(C)=O)C(O)C1O` (stereo not shown) [[13]], the MIC came out at 3.1 µg/mL (≈ 3.06 µM) in test [1]; 1.6 µg/mL (≈ 1.58 µM) in [2]; 25 µg/mL (≈ 24.7 µM) in test [3]; 12.5 µg/mL (≈ 12.3 µM) in test [4]; 3.1 µg/mL (≈ 3.06 µM) in test [5]; 25 in [6] (setting [21]). Moreover, the MIC in [6] (setting [22]) was found to be 12.5; in test [6] (setting [23]), 12.5 µg/mL (≈ 12.3 µM); in [7], 6.3 µg/mL (≈ 6.22 µM); in test [8] it was 12.5 µg/mL (≈ 12.3 µM); in test [9] it was 12.5 µg/mL (≈ 12.3 µM); in [10], 6.3 µg/mL (≈ 6.22 µM). The MIC was determined as 25 µg/mL (≈ 24.7 µM) in test [11]; 12.5 µg/mL (≈ 12.3 µM) in test [12]; 12.5 µg/mL (≈ 12.3 µM) in test [13]; 25 µg/mL (≈ 24.7 µM) in test [18]; 6 µg/mL (≈ 5.92 µM) in [19].

As for `CCCCC(CCCC(O)C(O)CCCCCCCCCCCCCCC(O)C(=O)O)OC1OCC(O)C(O)C1OC1OCC(OC(C)=O)C(O)C1OC1OC(CO)C(O)C(O)C1O` (stereo not shown) [[14]], the MIC was 1.6 µg/mL (≈ 1.72 µM) in [1]; 1.6 µg/mL (≈ 1.72 µM) in [2]; 25 µg/mL (≈ 26.9 µM) in [3]; 50 µg/mL (≈ 53.8 µM) in [4]; above 100 in test [6] (setting [21]); 50 in test [6] (setting [22]). The MIC was found to be 50 µg/mL (≈ 53.8 µM) in test [6] (setting [23]); 50 µg/mL (≈ 53.8 µM) in [7]; 25 µg/mL (≈ 26.9 µM) in test [8]; 50 µg/mL (≈ 53.8 µM) in test [9]; 25 µg/mL (≈ 26.9 µM) in [10]; 50 µg/mL (≈ 53.8 µM) in test [11]. For the same compound, the MIC in test [12] stood at 50 µg/mL (≈ 53.8 µM); in test [13], 25 µg/mL (≈ 26.9 µM); in test [18], 50 µg/mL (≈ 53.8 µM); in test [19], 25 µg/mL (≈ 26.9 µM).

On to `CCCCC(CCCC(O)C(O)CCCCCCCCCCCCCCC(O)C(=O)O)OC1OCC(O)C(O)C1OC1OCC(O)C(O)C1OC1OC(CO)C(O)C(O)C1O` (stereo not shown) [[16], Glykenin DGC or Glykenin DGB], for which the MIC in [1] is 3.1 µg/mL (≈ 3.49 µM); in [2] it was 1.6 µg/mL (≈ 1.8 µM); in test [3] it was 50 µg/mL (≈ 56.4 µM); in test [4] it was 25 µg/mL (≈ 28.2 µM); in test [5], 6.3 µg/mL (≈ 7.1 µM); in [6] (setting [21]), above 100. Besides, the MIC was above 100 in [6] (setting [22]); above 100 µg/mL in [6] (setting [23]); above 100 µg/mL in test [7]; 50 µg/mL (≈ 56.4 µM) in test [8]; above 100 µg/mL in test [9]; 25 µg/mL (≈ 28.2 µM) in test [10]. Further, the MIC is above 100 µg/mL in test [11]; above 100 µg/mL in test [12]; 100 µg/mL (≈ 113 µM) in test [13]; 50 µg/mL (≈ 56.4 µM) in test [18]; 25 µg/mL (≈ 28.2 µM) in test [19].

As for `CCCCCCC(CCCC(O)CCCCCCCCCCCCCC(O)C(=O)O)OC1OCC(O)C(O)C1OC1OCC(OC(C)=O)C(O)C1OC1OC(COC(=O)CC(C)C)C(O)C(O)C1O` (stereo not shown) [[18]], the figures for the MIC in test [6] (setting [21]) and in test [6] (setting [22]) were above 100 and 25, respectively.

For the compound `O=C(O)c1ccccc1` [benzoic acid, reference compound], the MIC was 1000 in test [6] (setting [24]), 1000 in [6] (setting [25]), above 1000 in [6] (setting [26]) and above 1000 in [6] (setting [27]).

Consider `C/C=C/C=C/C(=O)O` [sorbic acid, reference compound], for which the MIC in test [6] (setting [24]) amounted to 250; in [6] (setting [25]) it was 500; in test [6] (setting [26]) it was 1000; in test [6] (setting [27]), 1000.
